# Ends that are not written are not given here.
# Columns and labels:
# TRPV1 [1] = target: T1, TRPV1 (Mus musculus, UniProt Q704Y3)
# TRPV1 [2] = target: T2, TRPV1 (Homo sapiens, UniProt Q8NER1); conditions: applied topically; cited from earlier work
# [3] = tested on: TrpV1 expressing afferents; test: in vivo calcium imaging of injury-activated trigeminal ganglion neurons, topical capsaicin; design: species or system mouse; conditions: topical 5 mM capsaicin after incision injury, 32 of 38 neurons
# From the text: FIG. 9A is a micrograph of calcium imaging field in trigeminal ganglion of VGlut2^Cre; Rosa26^LSL-GCαMP6f mouse, with neurons active after injury highlighted. Scale bar is 100 μm. […] (The VGlut2^Cre; Rosa26^LSL-GCαMP6f mouse is generated by crossing a VGlut2-Cre mice with a […] mice, therefore the resulting double transgenic VGlut2^Cre; Rosa26^LSL-GCαMP6f mice express tD-Tomato (a red fluorescence protein) in all the sensory neurons but not in any other type of neuron. This allows for labeling and imaging of only sensory neurons in vivo.)
# The inventors assessed effect of topical TRPV1 agonist capsaicin applied after acute injury and wound in a mouse model in vivo. […] Capsaicin, a TRPV1 agonist, was later applied to the same region to determine that an unexpected high number of neurons, […] of neurons activated by injury were also TRPV1-positive.
# rTRPV1 = rTRPV1 (Rattus norvegicus, UniProt O35433)
# rTRPV1, sequence (O35433 whole entry): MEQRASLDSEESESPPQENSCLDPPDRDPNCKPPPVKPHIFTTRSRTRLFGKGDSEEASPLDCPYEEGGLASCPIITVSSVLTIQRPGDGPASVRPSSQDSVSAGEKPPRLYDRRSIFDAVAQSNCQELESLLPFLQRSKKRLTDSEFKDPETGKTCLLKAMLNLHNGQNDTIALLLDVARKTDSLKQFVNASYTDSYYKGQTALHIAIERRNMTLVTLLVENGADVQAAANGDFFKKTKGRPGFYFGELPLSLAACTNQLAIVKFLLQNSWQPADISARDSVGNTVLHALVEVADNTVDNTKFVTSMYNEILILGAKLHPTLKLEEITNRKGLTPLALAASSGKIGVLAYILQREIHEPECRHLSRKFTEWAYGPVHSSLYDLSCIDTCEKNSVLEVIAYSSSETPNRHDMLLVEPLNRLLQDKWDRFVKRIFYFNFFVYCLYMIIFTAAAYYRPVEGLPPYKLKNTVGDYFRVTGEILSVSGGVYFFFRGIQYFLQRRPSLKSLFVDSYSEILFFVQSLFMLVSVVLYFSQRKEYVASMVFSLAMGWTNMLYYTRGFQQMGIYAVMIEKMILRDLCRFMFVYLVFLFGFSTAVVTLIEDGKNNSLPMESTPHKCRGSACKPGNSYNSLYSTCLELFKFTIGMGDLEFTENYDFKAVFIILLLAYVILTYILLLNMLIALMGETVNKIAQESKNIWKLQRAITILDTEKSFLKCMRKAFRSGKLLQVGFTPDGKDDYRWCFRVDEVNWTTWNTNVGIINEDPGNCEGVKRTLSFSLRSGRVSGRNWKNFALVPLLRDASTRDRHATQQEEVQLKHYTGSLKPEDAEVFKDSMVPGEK
# Method: To identify if the antagonists were peptides, we purified saliva through a 30 kDa filter to eliminate large proteins and then used reverse-phase HPLC to fractionate the samples (FIG. 1B). […] The resultant 37 1 mL-fractions were dried, reconstituted in HBSS and screened on HEK cells transiently transfected with TRPV1 (FIG. 1C).
# TRPV1 [4] = target: T1, TRPV1; conditions: 5 nmol/mouse with capsaicin 5 nmol/mouse, paw injection
# From the text: Injection of capsaicin into a paw produces a short bout of biting and licking.
# TRPV1 [5] = target: T2, TRPV1; conditions: HEK293 cells transiently expressing hTRPV1
# rat TRPV1 = rat TRPV1 (Rattus norvegicus, UniProt O35433); conditions: 1 μM
# rat TRPV1, sequence (O35433 whole entry, the tested form may be a part): as the sequence (O35433 whole entry) above
# [6] = tested on: TRPV1 pore turret domain mutants (G603-N626); conditions: deletion and substitution mutations
# TRPV1 [7] = conditions: pH 5.6; 1 μM
# TRPA1 = TRPA1 (Mus musculus, UniProt Q8BLA8); conditions: 30 μM; AITC 50 μM
# TRPM8 = TRPM8 (Mus musculus, UniProt Q8R4D5); conditions: 30 μM; Menthol 100 μM
# TRPM8, sequence (Q8R4D5 whole entry): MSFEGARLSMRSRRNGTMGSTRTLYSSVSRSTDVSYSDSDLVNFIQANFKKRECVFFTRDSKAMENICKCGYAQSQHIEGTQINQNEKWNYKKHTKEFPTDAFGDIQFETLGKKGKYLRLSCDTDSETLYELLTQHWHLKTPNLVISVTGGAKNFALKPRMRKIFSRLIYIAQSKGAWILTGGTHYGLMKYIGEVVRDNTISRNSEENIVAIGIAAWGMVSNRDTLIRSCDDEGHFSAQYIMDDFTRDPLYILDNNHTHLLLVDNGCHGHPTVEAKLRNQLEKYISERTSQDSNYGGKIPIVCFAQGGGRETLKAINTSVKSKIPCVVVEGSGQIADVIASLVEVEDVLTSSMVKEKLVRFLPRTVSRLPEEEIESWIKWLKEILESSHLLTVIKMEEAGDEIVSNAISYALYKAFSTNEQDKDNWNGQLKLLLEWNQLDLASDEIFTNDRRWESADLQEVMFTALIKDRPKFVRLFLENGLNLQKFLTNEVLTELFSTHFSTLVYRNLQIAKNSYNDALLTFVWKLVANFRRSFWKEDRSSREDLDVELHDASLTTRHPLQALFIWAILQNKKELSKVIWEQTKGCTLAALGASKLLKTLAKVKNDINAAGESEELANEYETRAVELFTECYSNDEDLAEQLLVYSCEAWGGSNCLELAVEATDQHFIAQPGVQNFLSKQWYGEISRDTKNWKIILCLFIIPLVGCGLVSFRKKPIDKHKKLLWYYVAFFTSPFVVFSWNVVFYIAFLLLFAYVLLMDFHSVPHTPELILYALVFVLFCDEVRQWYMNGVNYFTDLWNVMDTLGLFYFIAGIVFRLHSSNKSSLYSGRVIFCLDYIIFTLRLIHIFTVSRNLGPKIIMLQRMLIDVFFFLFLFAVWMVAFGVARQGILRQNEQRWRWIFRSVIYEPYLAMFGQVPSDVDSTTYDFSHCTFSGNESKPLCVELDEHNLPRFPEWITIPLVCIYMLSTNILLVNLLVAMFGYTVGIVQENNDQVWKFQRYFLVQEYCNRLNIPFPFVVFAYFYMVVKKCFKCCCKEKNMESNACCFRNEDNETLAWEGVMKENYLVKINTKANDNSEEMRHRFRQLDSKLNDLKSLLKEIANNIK
# TRPV4 = TRPV4 (Mus musculus, UniProt Q9EPK8); conditions: 30 μM; GSK 1016790A 1 μM
# TRPV4, sequence (Q9EPK8 whole entry): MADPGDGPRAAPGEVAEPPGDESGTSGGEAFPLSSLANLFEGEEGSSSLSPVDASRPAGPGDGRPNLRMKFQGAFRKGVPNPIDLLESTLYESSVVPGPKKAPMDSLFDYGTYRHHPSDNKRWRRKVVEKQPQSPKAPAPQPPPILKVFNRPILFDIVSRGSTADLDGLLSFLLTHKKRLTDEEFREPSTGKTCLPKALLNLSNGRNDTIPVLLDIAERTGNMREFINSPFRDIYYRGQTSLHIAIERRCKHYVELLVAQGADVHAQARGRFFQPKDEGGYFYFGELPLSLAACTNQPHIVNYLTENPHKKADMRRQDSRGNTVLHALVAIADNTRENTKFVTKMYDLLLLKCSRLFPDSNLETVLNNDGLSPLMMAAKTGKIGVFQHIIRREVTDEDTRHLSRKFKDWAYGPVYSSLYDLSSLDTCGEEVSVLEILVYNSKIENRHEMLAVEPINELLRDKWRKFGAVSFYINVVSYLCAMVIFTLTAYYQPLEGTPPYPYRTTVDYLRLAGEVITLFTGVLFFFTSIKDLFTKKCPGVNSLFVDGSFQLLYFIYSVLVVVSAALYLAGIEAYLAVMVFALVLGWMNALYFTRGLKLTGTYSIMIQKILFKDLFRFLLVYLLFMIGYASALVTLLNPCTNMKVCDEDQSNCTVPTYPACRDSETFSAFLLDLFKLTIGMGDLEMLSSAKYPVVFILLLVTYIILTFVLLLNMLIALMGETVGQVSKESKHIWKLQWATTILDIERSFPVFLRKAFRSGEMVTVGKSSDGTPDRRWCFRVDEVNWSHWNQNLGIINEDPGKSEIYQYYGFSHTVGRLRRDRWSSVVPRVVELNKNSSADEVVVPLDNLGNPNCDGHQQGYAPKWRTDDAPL
# P2X3 = P2X3 (Mus musculus, UniProt Q3UR32); conditions: 30 μM; α,β-methylene-ATP 30 μM
# P2X3, sequence (Q3UR32 whole entry): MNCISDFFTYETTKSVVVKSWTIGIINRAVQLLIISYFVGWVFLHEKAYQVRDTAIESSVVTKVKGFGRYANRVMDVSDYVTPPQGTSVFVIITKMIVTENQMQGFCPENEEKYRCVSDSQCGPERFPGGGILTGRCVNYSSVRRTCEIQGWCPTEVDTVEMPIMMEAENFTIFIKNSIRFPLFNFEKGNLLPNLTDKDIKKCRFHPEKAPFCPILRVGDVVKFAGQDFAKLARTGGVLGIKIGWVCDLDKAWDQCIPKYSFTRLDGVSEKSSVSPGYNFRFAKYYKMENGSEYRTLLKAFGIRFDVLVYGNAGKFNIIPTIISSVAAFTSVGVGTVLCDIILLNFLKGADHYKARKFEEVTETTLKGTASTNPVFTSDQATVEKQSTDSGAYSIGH
# TRPV1 [8] = target: T1, TRPV1; conditions: Hot-plate test 52±0.1° C.
# TRPV1 [9] = target: T1, TRPV1; conditions: Von frey filaments
# TRPV1 [10] = target: T1, TRPV1; test: capsaicin-induced calcium flux in primary murine DRG neurons (plate-based/FLIPR); type: cell-based; design: capsaicin-induced currents in primary murine DRG neurons using whole cell patch clamp; endogenous in cells; host or cells: primary murine dorsal root ganglion (DRG) neurons; conditions: DRG neuron, read-out: inhibition of capsaicin-induced calcium flux
# From the text: To test the possibility that saliva may inhibit the TRPV1 heat pain receptor^12-14 in nociceptors, we collected samples of whole saliva from four human donors and ran a screen on primary murine dorsal root ganglion (DRG) neurons.
# TRPV1 [11] = target: T1, TRPV1; test: whole cell patch clamp of capsaicin-induced currents in primary murine DRG neurons; type: cell-based; design: capsaicin-induced currents in primary murine DRG neurons using whole cell patch clamp; endogenous in cells; host or cells: primary murine dorsal root ganglion (DRG) neurons; conditions: for block of capsaicin-induced currents by opiorphin family peptides: DRG neurons
# T1 sequence (Q704Y3 whole entry): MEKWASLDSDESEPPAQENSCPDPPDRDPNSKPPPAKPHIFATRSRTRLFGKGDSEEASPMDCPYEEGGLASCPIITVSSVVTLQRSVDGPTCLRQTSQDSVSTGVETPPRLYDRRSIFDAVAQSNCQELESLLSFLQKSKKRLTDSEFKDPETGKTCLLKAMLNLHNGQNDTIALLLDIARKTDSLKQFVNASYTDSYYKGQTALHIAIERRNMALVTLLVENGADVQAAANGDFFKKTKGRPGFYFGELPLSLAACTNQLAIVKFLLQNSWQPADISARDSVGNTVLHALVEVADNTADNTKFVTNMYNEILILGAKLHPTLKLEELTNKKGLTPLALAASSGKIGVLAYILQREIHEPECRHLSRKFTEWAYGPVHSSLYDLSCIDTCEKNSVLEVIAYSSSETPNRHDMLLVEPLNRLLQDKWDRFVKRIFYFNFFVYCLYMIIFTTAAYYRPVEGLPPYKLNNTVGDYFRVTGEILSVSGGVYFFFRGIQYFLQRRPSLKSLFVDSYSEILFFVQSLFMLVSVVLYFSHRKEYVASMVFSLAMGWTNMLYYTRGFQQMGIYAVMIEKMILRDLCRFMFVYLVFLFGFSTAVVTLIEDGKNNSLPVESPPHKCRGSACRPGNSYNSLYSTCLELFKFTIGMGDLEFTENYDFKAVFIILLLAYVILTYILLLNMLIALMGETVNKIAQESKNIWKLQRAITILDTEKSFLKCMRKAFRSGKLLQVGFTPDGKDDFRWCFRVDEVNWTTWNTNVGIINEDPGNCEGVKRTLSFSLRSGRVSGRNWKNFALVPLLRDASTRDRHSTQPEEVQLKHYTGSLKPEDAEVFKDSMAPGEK
# T2 sequence (Q8NER1 whole entry): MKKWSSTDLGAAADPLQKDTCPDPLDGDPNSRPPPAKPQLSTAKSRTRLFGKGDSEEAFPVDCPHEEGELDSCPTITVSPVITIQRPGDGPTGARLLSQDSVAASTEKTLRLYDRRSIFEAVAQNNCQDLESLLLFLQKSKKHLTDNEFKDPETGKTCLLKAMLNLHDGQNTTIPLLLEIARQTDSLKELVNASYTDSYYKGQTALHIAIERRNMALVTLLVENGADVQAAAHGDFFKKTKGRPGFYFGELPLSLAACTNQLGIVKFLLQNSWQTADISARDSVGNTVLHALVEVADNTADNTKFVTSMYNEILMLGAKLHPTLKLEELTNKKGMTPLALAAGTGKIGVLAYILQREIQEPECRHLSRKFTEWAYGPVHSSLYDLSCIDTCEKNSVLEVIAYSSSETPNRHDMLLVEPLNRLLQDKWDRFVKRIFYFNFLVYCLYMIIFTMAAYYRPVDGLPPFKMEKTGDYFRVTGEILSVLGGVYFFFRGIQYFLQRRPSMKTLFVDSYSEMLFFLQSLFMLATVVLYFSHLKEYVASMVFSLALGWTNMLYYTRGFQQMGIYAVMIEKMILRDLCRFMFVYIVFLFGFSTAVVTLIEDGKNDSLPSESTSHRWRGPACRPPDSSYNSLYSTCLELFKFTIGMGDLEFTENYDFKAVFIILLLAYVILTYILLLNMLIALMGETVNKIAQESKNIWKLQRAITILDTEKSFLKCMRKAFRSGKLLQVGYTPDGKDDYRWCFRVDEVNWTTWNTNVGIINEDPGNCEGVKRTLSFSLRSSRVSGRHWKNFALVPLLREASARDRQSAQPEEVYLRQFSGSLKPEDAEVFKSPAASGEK
compound,measurement,setting,value
"CC(C)(C)c1ccc(/C=C/C(=O)Nc2ccc3c(c2)OCCO3)cc1 [AMG 9810, (E)-3-(4-t-butylphenyl)-N-(2,3-dihydrobenzo[b][1,4]dioxin-6-yl)acrylamide, reference compound]",acute licking of superficial paw incision wound,"TRPV1 [1]; topical 30 μM, mice",reduced
O=C(Nc1ccccc1Br)N[C@@H]1CCN(c2ccc(C(F)(F)F)cn2)C1 [SB705498],symptomatic benefit for induced itch,TRPV1 [2],not to be of symptomatic benefit
COc1cc(CNC(=O)CCCC/C=C/C(C)C)ccc1O [capsaicin],injury-activated neurons responding to capsaicin,[3],84%
same,injury-activated neurons responding to capsaicin,[3]; listed as Capsaicin,~86%
QRFSR [opiorphin],peak efficacy of capsaicin reduced to,rTRPV1; 100 nM opiorphin,~50%
same,mode of inhibition versus capsaicin,rTRPV1; no rightward-shift of capsaicin curve,non-competitively
same,capsaicin-induced licking response,TRPV1 [4],significantly reduced
same,inhibition of capsaicin-induced currents,TRPV1 [5],inhibited capsaicin-induced currents
same,inhibition of resiniferatoxin action,"rat TRPV1; RTX 100 nM, HEK293 rTRPV1",inhibited the action
same,antagonism of capsaicin-evoked currents across voltages,"rat TRPV1; capsaicin 1 μM, HEK293 rat TRPV1",antagonized capsaicin-evoked currents at all voltages tested
same,inhibitory activity on pore turret mutants,[6],loss of opiorphin inhibitory activity
same,inhibition of proton-induced currents,TRPV1 [7],strongly inhibited
same,inhibition of calcium flux by TRPA1 agonist,TRPA1,did not inhibit
same,inhibition of calcium flux by TRPM8 agonist,TRPM8,did not inhibit
same,inhibition of calcium flux by TRPV4 agonist,TRPV4,did not inhibit
same,inhibition of calcium flux by P2X3 agonist,P2X3,did not inhibit
same,thermal hypersensitivity after capsaicin injection,TRPV1 [8],reduced
same,mechanical hypersensitivity after capsaicin injection,TRPV1 [9],reduced
same,licking/biting response to superficial paw incision,"TRPV1 [1]; topical 10 μM, 5 s, C57 mice, vs topical saline",eliminated
same,inhibition at 1 µM,TRPV1 [10],~50%
same,block of capsaicin-induced currents,TRPV1 [11],effectively eliminated
same,"effect on TRPV1 currents, external application",TRPV1 [11],substantially reduced
same,"effect on TRPV1 currents, internal application",TRPV1 [11],no change in TRPV1 currents was detected
same,inhibition of capsaicin currents when applied into capsaicin application,TRPV1 [11],inhibited capsaicin currents
same,ability to block capsaicin-evoked currents after pertussis toxin,"TRPV1 [11]; PTX 1 μg/mL, 3 hours",remained intact
SMR3 peptide: SMR3 peptide (QRGPR; SEQ ID NO: 5) of the opiorphin family [reference compound],block of capsaicin-induced currents by opiorphin family peptides,TRPV1 [11],no such activity
"sialorphin: rat peptide sialorphin (QHNPR, SEQ ID NO: 4) of the opiorphin family (listed as Rattus norvegicus) [reference compound]",block of capsaicin-induced currents by opiorphin family peptides,TRPV1 [11],blocked capsaicin-induced currents

# Source: patent US20210290524A1, “TOPICAL TRPV1 ANTAGONISTS AND METHODS AND COMPOSITIONS THEREOF” (CHILDREN'S MEDICAL CENTER CORPORATION, priority 2016, published 2021)
